≈ marks a conversion by molar mass, not a printed value.
Assays:
Enterococcus spp. = assay: minimum inhibitory concentration (MIC)
Description: (§1)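 Broth microdilution MIC (Sensititre BOPO7F bovine plate, CLSI methods) of 19 antimicrobials against field isolates of P. multocida, M. haemolytica, H. somni (deep nasopharyngeal swabs) and E. coli, Enterococcus spp. (rectal swabs) from weaned dairy heifers. Incubation 16-24 h at 35 C. MIC is the lowest concentration preventing visible growth. Values with <= or > lie at the tested range limits. Trimethoprim-sulfamethoxazole is given as the trimethoprim component of a 1:19 mixture.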

Pasteurella multocida = assay: minimum inhibitory concentration (MIC)
Description: as §1

C=C[C@]1(C)C[C@@H](OC(=O)CSCCN(CC)CC)[C@]2(C)[C@H](C)CC[C@]3(CCC(=O)[C@H]32)[C@@H](C)[C@@H]1O [Tiamulin]
minimum inhibitory concentration [µg/mL]
Conditions	Enterococcus spp.	Pasteurella multocida
isolate (source animal id): 2	1 (≈ 2.03 µM)	–
isolate (source animal id): 10	–	16 (≈ 32.4 µM)
isolate (source animal id): 11	–	16 (≈ 32.4 µM)
isolate (source animal id): 12	–	16 (≈ 32.4 µM)
isolate (source animal id): 19	–	16 (≈ 32.4 µM)
isolate (source animal id): 23	–	16 (≈ 32.4 µM)
isolate (source animal id): 26	–	32 (≈ 64.8 µM)
isolate (source animal id): 35	> 32	–
isolate (source animal id): 42	> 32	–
isolate (source animal id): 44	> 32	–
isolate (source animal id): 79	> 32	–
isolate (source animal id): 88	2 (≈ 4.05 µM)	–
isolate (source animal id): 91	2 (≈ 4.05 µM)	–
isolate (source animal id): 92	> 32	–
isolate (source animal id): 98	–	32 (≈ 64.8 µM)
isolate (source animal id): 104	–	32 (≈ 64.8 µM)
isolate (source animal id): 111	2 (≈ 4.05 µM)	–
isolate (source animal id): 115	–	32 (≈ 64.8 µM)
isolate (source animal id): 117	–	32 (≈ 64.8 µM)
isolate (source animal id): 118	–	32 (≈ 64.8 µM)
isolate (source animal id): 121	–	32 (≈ 64.8 µM)
isolate (source animal id): 122	> 32	–
isolate (source animal id): 123	> 32	–
isolate (source animal id): 124	–	32 (≈ 64.8 µM)
isolate (source animal id): 125	–	32 (≈ 64.8 µM)
isolate (source animal id): 128	–	32 (≈ 64.8 µM)
isolate (source animal id): 131	–	32 (≈ 64.8 µM)
isolate (source animal id): 133	≤ 0.5	–
isolate (source animal id): 135	–	16 (≈ 32.4 µM)
isolate (source animal id): 136	–	32 (≈ 64.8 µM)
isolate (source animal id): 140	–	32 (≈ 64.8 µM)
isolate (source animal id): 144	–	32 (≈ 64.8 µM)
isolate (source animal id): 146	–	32 (≈ 64.8 µM)
isolate (source animal id): 150	–	32 (≈ 64.8 µM)
isolate (source animal id): 151	–	32 (≈ 64.8 µM)
isolate (source animal id): 153	–	32 (≈ 64.8 µM)
isolate (source animal id): 155	–	32 (≈ 64.8 µM)
isolate (source animal id): 157	–	16 (≈ 32.4 µM)
isolate (source animal id): 158	> 32	–
isolate (source animal id): 160	–	32 (≈ 64.8 µM)
isolate (source animal id): 164	–	32 (≈ 64.8 µM)
isolate (source animal id): 165	–	32 (≈ 64.8 µM)
isolate (source animal id): 167	–	32 (≈ 64.8 µM)
isolate (source animal id): 168	1 (≈ 2.03 µM)	32 (≈ 64.8 µM)
isolate (source animal id): 169	1 (≈ 2.03 µM)	16 (≈ 32.4 µM)
isolate (source animal id): 170	–	32 (≈ 64.8 µM)
isolate (source animal id): 171	> 32	32 (≈ 64.8 µM)
isolate (source animal id): 172	–	32 (≈ 64.8 µM)
isolate (source animal id): 173	–	32 (≈ 64.8 µM)
isolate (source animal id): 174	–	16 (≈ 32.4 µM)
isolate (source animal id): 175	> 32	32 (≈ 64.8 µM)
isolate (source animal id): 176	–	16 (≈ 32.4 µM)
isolate (source animal id): 177	> 32	32 (≈ 64.8 µM)
isolate (source animal id): 178	–	32 (≈ 64.8 µM)
isolate (source animal id): 179	–	32 (≈ 64.8 µM)
isolate (source animal id): 181	1 (≈ 2.03 µM)	–
isolate (source animal id): 182	1 (≈ 2.03 µM)	32 (≈ 64.8 µM)
isolate (source animal id): 183	> 32	–
isolate (source animal id): 187	1 (≈ 2.03 µM)	–
isolate (source animal id): 190	1 (≈ 2.03 µM)	–
isolate (source animal id): 192	–	32 (≈ 64.8 µM)
isolate (source animal id): 193	–	32 (≈ 64.8 µM)
isolate (source animal id): 194	> 32	–
isolate (source animal id): 195	1 (≈ 2.03 µM)	32 (≈ 64.8 µM)
isolate (source animal id): 196	–	32 (≈ 64.8 µM)
isolate (source animal id): 197	8 (≈ 16.2 µM)	32 (≈ 64.8 µM)
isolate (source animal id): 198	–	32 (≈ 64.8 µM)
isolate (source animal id): 199	–	32 (≈ 64.8 µM)
isolate (source animal id): 200	–	32 (≈ 64.8 µM)
isolate (source animal id): 201	–	32 (≈ 64.8 µM)
isolate (source animal id): 203	–	16 (≈ 32.4 µM)
isolate (source animal id): 204	–	32 (≈ 64.8 µM)
isolate (source animal id): 205	–	32 (≈ 64.8 µM)
isolate (source animal id): 206	–	32 (≈ 64.8 µM)
isolate (source animal id): 207	–	32 (≈ 64.8 µM)
isolate (source animal id): 208	–	16 (≈ 32.4 µM)
isolate (source animal id): 209	–	16 (≈ 32.4 µM)
isolate (source animal id): 210	–	32 (≈ 64.8 µM)
isolate (source animal id): 211	≤ 0.5	–
isolate (source animal id): 213	–	16 (≈ 32.4 µM)
isolate (source animal id): 214	16 (≈ 32.4 µM)	–
isolate (source animal id): 216	–	32 (≈ 64.8 µM)
isolate (source animal id): 222	> 32	–
isolate (source animal id): 223	> 32	16 (≈ 32.4 µM)
isolate (source animal id): 227	–	16 (≈ 32.4 µM)
isolate (source animal id): 228	≤ 0.5	–
isolate (source animal id): 229	–	32 (≈ 64.8 µM)
isolate (source animal id): 230	≤ 0.5	–
isolate (source animal id): 233	–	> 32
isolate (source animal id): 234	–	32 (≈ 64.8 µM)
isolate (source animal id): 235	≤ 0.5	–
isolate (source animal id): 236	> 32	–
isolate (source animal id): 237	–	32 (≈ 64.8 µM)
isolate (source animal id): 239	2 (≈ 4.05 µM)	–
isolate (source animal id): 241	≤ 0.5	32 (≈ 64.8 µM)
isolate (source animal id): 244	> 32	–
isolate (source animal id): 245	–	32 (≈ 64.8 µM)
isolate (source animal id): 246	> 32	–
isolate (source animal id): 247	≤ 0.5	32 (≈ 64.8 µM)
isolate (source animal id): 250	> 32	32 (≈ 64.8 µM)
isolate (source animal id): 252	> 32	–
isolate (source animal id): 254	–	32 (≈ 64.8 µM)
isolate (source animal id): 255	–	16 (≈ 32.4 µM)
isolate (source animal id): 258	–	32 (≈ 64.8 µM)
isolate (source animal id): 261	–	32 (≈ 64.8 µM)
isolate (source animal id): 262	–	32 (≈ 64.8 µM)
isolate (source animal id): 268	1 (≈ 2.03 µM)	–
isolate (source animal id): 269	–	32 (≈ 64.8 µM)
isolate (source animal id): 270	–	32 (≈ 64.8 µM)
isolate (source animal id): 274	–	32 (≈ 64.8 µM)
isolate (source animal id): 275	–	32 (≈ 64.8 µM)
isolate (source animal id): 276	–	32 (≈ 64.8 µM)
isolate (source animal id): 277	–	32 (≈ 64.8 µM)
isolate (source animal id): 278	–	32 (≈ 64.8 µM)
isolate (source animal id): 279	–	32 (≈ 64.8 µM)
isolate (source animal id): 280	–	32 (≈ 64.8 µM)
isolate (source animal id): 282	> 32	–
isolate (source animal id): 284	–	32 (≈ 64.8 µM)
isolate (source animal id): 285	> 32	32 (≈ 64.8 µM)
isolate (source animal id): 287	–	32 (≈ 64.8 µM)
isolate (source animal id): 289	> 32	–
isolate (source animal id): 290	> 32	32 (≈ 64.8 µM)
isolate (source animal id): 294	–	32 (≈ 64.8 µM)
isolate (source animal id): 295	–	> 32
isolate (source animal id): 296	> 32	32 (≈ 64.8 µM)
isolate (source animal id): 298	≤ 0.5	–
isolate (source animal id): 301	32 (≈ 64.8 µM)	–
isolate (source animal id): 307	–	32 (≈ 64.8 µM)
isolate (source animal id): 310	> 32	> 32
isolate (source animal id): 311	–	> 32
isolate (source animal id): 312	–	32 (≈ 64.8 µM)
isolate (source animal id): 313	–	32 (≈ 64.8 µM)
isolate (source animal id): 315	–	32 (≈ 64.8 µM)
isolate (source animal id): 316	–	32 (≈ 64.8 µM)
isolate (source animal id): 320	> 32	–
isolate (source animal id): 331	> 32	–
isolate (source animal id): 333	> 32	–
isolate (source animal id): 341	> 32	–

— the supplement of paper PMC8612539
